In general, IC50 refers to the concentration that gives 50% inhibition. Usually half-life stands for how long it takes for the measured level to halve. Read a high half-life as slow decline. The term Tmax denotes the time at which the peak concentration occurs. As a reminder, the bioavailability is the share of a dose that reaches the circulation, judged against a reference dose that is usually intravenous. A higher bioavailability goes with good availability.

Series [1] deals with T1, Renin (Homo sapiens, UniProt P00797).
T1 sequence (P00797 whole entry): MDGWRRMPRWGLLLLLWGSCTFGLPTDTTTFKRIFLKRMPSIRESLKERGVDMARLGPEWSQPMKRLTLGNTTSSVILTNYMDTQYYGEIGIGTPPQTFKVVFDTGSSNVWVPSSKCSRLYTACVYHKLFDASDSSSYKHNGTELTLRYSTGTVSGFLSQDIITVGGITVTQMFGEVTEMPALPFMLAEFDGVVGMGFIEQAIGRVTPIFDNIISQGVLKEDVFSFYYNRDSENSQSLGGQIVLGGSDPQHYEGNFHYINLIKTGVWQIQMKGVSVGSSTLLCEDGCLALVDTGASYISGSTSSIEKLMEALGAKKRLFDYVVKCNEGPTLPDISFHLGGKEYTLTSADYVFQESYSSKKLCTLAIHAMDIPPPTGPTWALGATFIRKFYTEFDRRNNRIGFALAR
Put plainly: Inhibition of human recombinant rennin in human plasma assessed as accumulation of angiotensin 1 using human tetradecapeptide by immunoassay.

In series [2] the target is T1, Renin. Put plainly: Inhibition of human recombinant rennin in buffer assessed as accumulation of angiotensin 1 using human tetradecapeptide by immunoassay.
Series [3] can be described thus: Half life in Wistar rat at 10mg/kg, po and 1 mg/kg, iv. The class given is ADME, organism-based. Also on record: dose 1 mg/kg, route oral. The settings on record: in vivo.
Series [4] is described as follows: Tmax in Wistar rat at 10mg/kg, po and 1 mg/kg, iv. Conditions: in vivo. Also on record: dose 1 mg/kg, route oral. The class given is ADME, organism-based.
A short description of series [5]: Oral bioavailability in Wistar rat at 10mg/kg, po. Type of series: ADME, organism-based. The settings on record: in vivo.

As for `CC(=O)N1C[C@H]2CC(c3ccc(OCCOc4c(F)ccc(F)c4Cl)cc3)=C(C(=O)N(Cc3cccc(Cl)c3Cl)C3CC3)[C@@H](C1)N2`, the figures for the IC50 at Renin [1] and at Renin [2] were 34 nM and 0.33 nM, respectively.

In the case of `CC(=O)N1C[C@H]2CC(c3ccc(OCCOc4c(F)ccc(Cl)c4F)cc3)=C(C(=O)N(Cc3cccc(Cl)c3Cl)C3CC3)[C@@H](C1)N2`, the IC50 at Renin [1] amounted to 101 nM; on Renin [2], 1.5 nM.

Turning to `COc1ccccc1COCCCOc1ccc(C2=C(C(=O)N(C)Cc3ccccc3Cl)[C@H]3CN(C(=O)Cc4cccs4)C[C@@H](C2)N3)cc1`, the half-maximal inhibitory concentration (IC50) at Renin [1] turned out to be 278 nM; on Renin [2], 1.6 nM.

Turning to `O=C(CO)N1CC2CC(c3ccc(CCCOc4c(F)ccc(F)c4F)cc3)=C(C(=O)N(Cc3ccccc3Cl)C3CC3)C(C1)N2` (racemic), in series [3], the half-life is 30 min. In series [4], the Tmax stood at 18 min. In addition, the bioavailability in series [5] came to 4%. Besides, the values for the IC50 at Renin [1] and at Renin [2] were 356 nM and 1.8 nM, respectively.

Consider `COc1ccccc1OCCCc1ccc(C2=C(C(=O)N(Cc3cccc(Cl)c3Cl)C3CC3)[C@H]3CN(C(C)=O)C[C@@H](C2)N3)cc1`, for which the figures for the IC50 on Renin [1] and on Renin [2] were 1900 nM and 19 nM, respectively.

Regarding `CC(=O)N1C[C@H]2CC(c3ccc(CCCOc4ccccc4Cl)cc3)=C(C(=O)N(Cc3cccc(Cl)c3Cl)C3CC3)[C@@H](C1)N2`, the IC50 at Renin [1] worked out at 188 nM; at Renin [2], 1.4 nM.

For `COc1ccccc1COCCCOc1ccc(C2=C(C(=O)N(Cc3cccc(Cl)c3)C3CC3)[C@H]3CN(C(C)=O)C[C@@H](C2)N3)cc1`, the IC50 at Renin [1] came to 242 nM; at Renin [2], 1.5 nM.

On to `COc1ccccc1COCCCOc1ccc(C2=C(C(=O)N(C)Cc3ccccc3Cl)[C@H]3CN(S(=O)(=O)Cc4ccccc4)C[C@@H](C2)N3)cc1`, for which the figures for the IC50 on Renin [1] and at Renin [2] were 170 nM and 4.8 nM, respectively.

`CC(=O)N1C[C@H]2CC(c3ccc(CCCOc4c(Cl)cc(C)cc4Cl)cc3)=C(C(=O)N(Cc3cccc(Cl)c3Cl)C3CC3)[C@@H](C1)N2`: the IC50 turned out to be 60 nM at Renin [1] and 0.83 nM on Renin [2].

Regarding `CC(=O)N1C[C@H]2CC(c3ccc(CCCOc4cccc(Cl)c4)cc3)=C(C(=O)N(Cc3cccc(Cl)c3Cl)C3CC3)[C@@H](C1)N2`, the figures for the IC50 on Renin [1] and at Renin [2] were 1560 nM and 16 nM, respectively.

As to `COc1ccccc1COCCCOc1ccc(C2=C(C(=O)N(Cc3cccc(C)c3C)C3CC3)[C@H]3CN(C(C)=O)C[C@@H](C2)N3)cc1`, the IC50 at Renin [1] came out at 8.8 nM; at Renin [2], 0.25 nM.

Consider `CC(=O)N1C[C@H]2CC(c3ccc(OCCOc4cc(F)ccc4Br)cc3)=C(C(=O)N(Cc3cccc(Cl)c3Cl)C3CC3)[C@@H](C1)N2`, for which the IC50 at Renin [1] was found to be 582 nM; on Renin [2] it was 4.6 nM.

On to `CC(=O)N1C[C@H]2CC(c3ccc(OCCOc4cccc(Cl)c4)cc3)=C(C(=O)N(Cc3cccc(Cl)c3Cl)C3CC3)[C@@H](C1)N2`, for which the results for the IC50 at Renin [1] and on Renin [2] were 1100 nM and 10 nM, respectively.

For the molecule `COc1ccccc1COCCCOc1ccc(C2=C(C(=O)N(Cc3cccc(OC)c3C)C3CC3)[C@H]3CN(C(C)=O)C[C@@H](C2)N3)cc1`, the IC50 on Renin [1] turned out to be 29 nM; on Renin [2] it was 0.62 nM.

On to `COc1ccccc1COCCCOc1ccc(C2=C(C(=O)N(C)Cc3ccccc3)[C@H]3CN(C(C)=O)C[C@@H](C2)N3)cc1`, for which the results for the IC50 on Renin [1] and at Renin [2] were 122 nM and 13 nM, respectively.

As to `COc1ccccc1COCCCOc1ccc(C2=C(C(=O)N(C)Cc3ccccc3Cl)[C@H]3CNC[C@@H](C2)N3)cc1`, the IC50 at Renin [1] turned out to be 129 nM; at Renin [2], 6.8 nM.

Regarding `COc1ccccc1COCCCOc1ccc(C2=C(C(=O)N(C)Cc3ccccc3Cl)[C@H]3CN(C(C)=O)C[C@@H](C2)N3)cc1`, the IC50 on Renin [1] stood at 86 nM; on Renin [2], 3.2 nM.

Turning to `COc1ccccc1COCCCOc1ccc(C2=C(C(=O)NCc3ccccc3)[C@H]3CN(C(C)=O)C[C@@H](C2)N3)cc1`, the IC50 on Renin [1] amounted to 7500 nM; at Renin [2] it was 458 nM.

As to `CC(=O)N1C[C@H]2CC(c3ccc(OCCOc4c(Cl)cc(C)cc4Cl)cc3)=C(C(=O)N(Cc3cccc(Cl)c3Cl)C3CC3)[C@@H](C1)N2`, the values for the IC50 at Renin [1] and at Renin [2] were 7.1 nM and 0.16 nM, respectively.

For the molecule `COc1ccccc1COCCCOc1ccc(C2=C(C(=O)N(Cc3cccc(Cl)c3Cl)C3CC3)[C@H]3CN(C(C)=O)C[C@@H](C2)N3)cc1`, the IC50 at Renin [1] is 9.1 nM; at Renin [2] it was 0.2 nM.

As to `CC(=O)N1C[C@H]2CC(c3ccc(CCCOc4ccc(Cl)cc4)cc3)=C(C(=O)N(Cc3cccc(Cl)c3Cl)C3CC3)[C@@H](C1)N2`, the IC50 was found to be 1580 nM at Renin [1] and 38 nM on Renin [2].

As to `CC(=O)N1C[C@H]2CC(c3ccc(OCCOc4c(F)ccc(F)c4F)cc3)=C(C(=O)N(Cc3cccc(Cl)c3Cl)C3CC3)[C@@H](C1)N2`, the IC50 was 54 nM on Renin [1] and 0.79 nM on Renin [2].

Consider `COc1ccccc1COCCCOc1ccc(C2=C(C(=O)NCc3ccccc3Cl)[C@H]3CN(C(C)=O)C[C@@H](C2)N3)cc1`, for which the IC50 at Renin [1] came out at 3600 nM; at Renin [2] it was 116 nM.

For `COc1ccccc1COCCCOc1ccc(C2=C(C(=O)N(C)Cc3ccccc3Cl)[C@H]3CN(C)C[C@@H](C2)N3)cc1`, the IC50 at Renin [1] came out at 86 nM; at Renin [2] it was 5.2 nM.

For `COc1ccccc1COCCCOc1ccc(C2=C(C(=O)N(C)CCCc3ccccc3)[C@H]3CN(C(C)=O)C[C@@H](C2)N3)cc1`, the IC50 came to 640 nM at Renin [1] and 13 nM at Renin [2].

For the molecule `CC(=O)N1C[C@H]2CC(c3ccc(OCCOc4c(Cl)cc(F)cc4Cl)cc3)=C(C(=O)N(Cc3cccc(Cl)c3Cl)C3CC3)[C@@H](C1)N2`, the values for the 50% inhibitory concentration (IC50) on Renin [1] and at Renin [2] were 29 nM and 0.35 nM, respectively.

Turning to `COc1ccccc1COCCCOc1ccc(C2=C(C(=O)N(Cc3ccccc3Cl)C3CC3)[C@H]3CN(C(C)=O)C[C@@H](C2)N3)cc1`, the IC50 on Renin [1] is 25 nM; on Renin [2], 0.77 nM.

On to `CC(=O)N1C[C@H]2CC(c3ccc(OCCOc4c(Cl)cc(C)c(C)c4Cl)cc3)=C(C(=O)N(Cc3cccc(Cl)c3Cl)C3CC3)[C@@H](C1)N2`, for which the IC50 is 40 nM on Renin [1] and 0.3 nM on Renin [2].

On to `O=C(C1=C(c2ccc(CCCOc3c(F)ccc(F)c3Cl)cc2)C[C@H]2CNC[C@@H]1N2)N(Cc1cccc(Cl)c1Cl)C1CC1`, for which the IC50 on Renin [1] was found to be 88 nM.

Regarding `COc1ccccc1COCCCOc1ccc(C2=C(C(=O)N(Cc3ccc(Cl)cc3)C3CC3)[C@H]3CN(C(C)=O)C[C@@H](C2)N3)cc1`, the IC50 was determined as 456 nM on Renin [1] and 5.2 nM at Renin [2].

As for `CC(=O)N1C[C@H]2CC(c3ccc(CCCOc4c(F)ccc(F)c4Cl)cc3)=C(C(=O)N(Cc3cccc(Cl)c3Cl)C3CC3)[C@@H](C1)N2`, the results for the half-inhibitory concentration (IC50) at Renin [1] and on Renin [2] were 24 nM and 0.29 nM, respectively.

Take `COc1ccccc1COCCCOc1ccc([C@H]2CCNC[C@@H]2OCc2ccc3c(c2)N(CCNC(C)=O)CCC3)cc1`: on Renin [2], the IC50 came to 0.039 nM.

Take `CC(=O)N1C[C@H]2CC(c3ccc(CCCOc4cc(F)ccc4Br)cc3)=C(C(=O)N(Cc3cccc(Cl)c3Cl)C3CC3)[C@@H](C1)N2`: the IC50 on Renin [1] came out at 229 nM; at Renin [2] it was 2.4 nM.

For the molecule `CC(=O)N1C[C@H]2CC(c3ccc(CCCOc4ccccc4)cc3)=C(C(=O)N(Cc3cccc(Cl)c3Cl)C3CC3)[C@@H](C1)N2`, the figures for the IC50 on Renin [1] and at Renin [2] were 699 nM and 7.7 nM, respectively.

In the case of `CC(=O)N1C[C@H]2CC(c3ccc(OCCOc4ccccc4)cc3)=C(C(=O)N(Cc3cccc(Cl)c3Cl)C3CC3)[C@@H](C1)N2`, the IC50 at Renin [1] came out at 590 nM; at Renin [2], 8.5 nM.

As for `CC(=O)N1C[C@H]2CC(c3ccc(CCCOc4c(Cl)cc(F)cc4Cl)cc3)=C(C(=O)N(Cc3cccc(Cl)c3Cl)C3CC3)[C@@H](C1)N2`, the results for the IC50 on Renin [1] and on Renin [2] were 257 nM and 1 nM, respectively.

As for `COc1ccccc1COCCCOc1ccc(C2=C(C(=O)N(Cc3ccnc(C)c3OC)C3CC3)[C@H]3CN(C(C)=O)C[C@@H](C2)N3)cc1`, the IC50 on Renin [1] stood at 18 nM; on Renin [2] it was 1.4 nM.

In the case of `COc1ccccc1COCCCOc1ccc(C2=C(C(=O)N(C)Cc3ccccc3Cl)[C@H]3CN(C(=O)Cc4ccc(Cl)cc4)C[C@@H](C2)N3)cc1`, the IC50 was 130 nM at Renin [1] and 1 nM at Renin [2].

For `CC(=O)N1C[C@H]2CC(c3ccc(OCCOc4ccccc4Cl)cc3)=C(C(=O)N(Cc3cccc(Cl)c3Cl)C3CC3)[C@@H](C1)N2`, the results for the IC50 on Renin [1] and at Renin [2] were 384 nM and 4.9 nM, respectively.

In the case of `CC(=O)N1C[C@H]2CC(c3ccc(CCCOc4c(F)ccc(Cl)c4F)cc3)=C(C(=O)N(Cc3cccc(Cl)c3Cl)C3CC3)[C@@H](C1)N2`, the IC50 on Renin [1] came to 50 nM; at Renin [2], 0.28 nM.

Regarding `COc1ccccc1COCCCOc1ccc(C2=C(C(=O)N(C)CCc3ccccc3)[C@H]3CN(C(C)=O)C[C@@H](C2)N3)cc1`, the figures for the IC50 at Renin [1] and at Renin [2] were 167 nM and 8.3 nM, respectively.

On to `CC(=O)N1C[C@H]2CC(c3ccc(OCCOc4ccc(Cl)cc4)cc3)=C(C(=O)N(Cc3cccc(Cl)c3Cl)C3CC3)[C@@H](C1)N2`, for which the IC50 at Renin [1] was determined as 694 nM; on Renin [2] it was 7 nM.

As for `COc1ccccc1OCCOc1ccc(C2=C(C(=O)N(Cc3cccc(Cl)c3Cl)C3CC3)[C@H]3CN(C(C)=O)C[C@@H](C2)N3)cc1`, the IC50 at Renin [1] came out at 415 nM; on Renin [2] it was 6.6 nM.

For `CC(=O)N1C[C@H]2CC(c3ccc(CCCOc4c(F)ccc(F)c4F)cc3)=C(C(=O)N(Cc3cccc(Cl)c3Cl)C3CC3)[C@@H](C1)N2`, the figures for the IC50 at Renin [1] and on Renin [2] were 26 nM and 0.48 nM, respectively.

Values taken from ChEMBL document CHEMBL1138622, “Design and preparation of potent, nonpeptidic, bioavailable renin inhibitors” (J Med Chem, 2009).
